Experiment [1] has as its system two key underarm bacteria strains. As to the kind of experiment: Raw material microbial inhibition, verdict in words over both strains. The experiment is classed as cell-based, Corynebacterium mucofaciens; Staphylococcus epidermidis. As to the method: The Tier 1 Anaerobic MIC Assay test method to generate the data of Table 2 is described below.
(§1) Tier 1 Anaerobic MIC Assay
The data in Table 2 above was generated with the following test method.
3. Microbial Strains • Staphylococcus epidermidis (clinical isolate) • Corynebacterium mucofaciens (clinical isolate)
4. Test Procedure • Inoculum Preparation • Prior to testing streak organisms for isolation on BHI with 1% Tween 80 plates, wrap with parafilm and place in 37° C. incubator. When isolated colonies appear remove one representative colony from each plate and place each in 5 ml of BHI with 1% Tween 80 media. Incubate at 37° C. with shaking overnight. Inoculate 20 ml BHI with 1% Tween 80 (per 96 deep well plate to be tested) with 20 ul of the overnight culture (1-1000 dilution). • Master Plate Preparation • Compounds/formulations to be tested are diluted across a 96 deep well plate as shown below in Table 3 (for a 1% stock solution). […] 800 ul each 1% stock solution+positive control are added to wells C1 through H1. […] 400 ul is then removed from #1 well added to the #2 well and mixed. This is then continued across the plate resulting in a 50% dilution between wells across the plate (this can be easily accomplished with an automatic 8 channel Matrix pipette set to withdraw, dispense and mix).
In row A of a 96 deep well plate pipette 180 ul of sterile BHI with 1% Tween 80 as a negative growth control. All other wells receive 180 ul of inoculum. From the master plate introduce 20 ul to the corresponding row in the test plate using an 8-channel pipette. Loaded plates are placed on a plate shaker in the 37° C. incubator and incubated overnight. The next day read the O.D. 600 on a plate reader. The MIC is the last well from the right that has no bacterial growth.

Experiment [2] relates to C. mucofaciens. The experiment is described as follows: Tier 1 Anaerobic MIC Assay. The note with it: raw material, 37° C. overnight, O.D. 600. The experiment is classed as cell-based, Corynebacterium mucofaciens (clinical isolate).
Text: as §1
(§2) The data in Table 2 above was generated with the following test method. The purpose of this assay is to determine if a compound or formulation has an antimicrobial effect in vitro.
(§3) It is understood that when not specifically noted in this procedure: • a) All materials, reagents and equipment required for this procedure are of appropriate design and condition of cleanliness and/or sterility as determined by their intended use. • b) The operator has been trained in aseptic technique and has been qualified to perform the procedure and accurately interpret the results. • c) All media required for this procedure was manufactured by a reputable commercial source egg. Difco, Merck etc. and has been stored and prepared as per manufacturer's instructions. • d) All routine laboratory controls, including but not limited to, media function and growth promotion tests, verification of sterility and use of positive and negative controls are being conducted.
(§4) Procedure: (All procedures performed in anaerobic chamber except where noted)
1. […]
(§5) In row A of a 96 deep well plate pipette 180 ul of sterile BHI with 1% Tween 80 as a negative growth control. […] The next day read the O.D. 600 on a plate reader. […]

The subject of experiment [3] is S. epidermidis. The experiment is described as follows: Tier 1 Anaerobic MIC Assay. The experiment is classed as cell-based, Staphylococcus epidermidis (clinical isolate). The conditions noted are these: raw material, 37° C. overnight, O.D. 600.
Text: as §1, §2, §3, §4
1. […]
as §5

Counter-ions that a name gives are not always drawn.

In the case of `CCOC(=O)CC(O)(CC(=O)OCC)C(=O)OCC` [100% Triethyl citrate, Triethyl citrate], the “performance against the bacteria as raw materials (in words)” value (from here on “performance against the bacteria”) in experiment [1] is listed as “performing well”.

Consider `O=C([O-])[O-].[Ca+2]` [Ca Carbonate 50 mg/ml H2O ins, calcium carbonate], for which the “performance against the bacteria” value in experiment [1] was “performing moderately well”. Still for that read-out and setting: the result for `COC(=O)CCC(=O)OC` [Dimethyl Succinate 98% ETOH, Dimethyl Succinate] reads “performing well”.

On to `N=C(N)c1ccc(OCCCCCCOc2ccc(C(=N)N)cc2)cc1` [Hexamidine 36 mg/ml H2O, Hexamidine], for which, in experiment [1], the “performance against the bacteria” value is given as “perform particularly well”. For the same compound, the “microbial inhibition concentration (MIC)” value is given as <2 ppm in experiment [2] and 7 ppm in experiment [3]. Take `C=CCc1ccc(O)c(OC)c1` [Eugenol 99% ETOH, Eugenol]: in experiment [1], the “performance against the bacteria” value is given as “performing well”.

With `CC(C)=CCCC(C)=CC=O` [Citral 96% ETOH, Citral], the “performance against the bacteria” value in experiment [1] is on record as “performing well”. On to `Cc1cc(CC(C)CC(C)(C)C)n(O)c(=O)c1.NCCO` (stereo not drawn) [100 mg/ml piroctone olamine in H2O, piroctone olamine], for which the “performance against the bacteria” value in experiment [1] is recorded as “perform particularly well”. Further, the “microbial inhibition concentration (MIC)” value in experiment [2] is listed as < 5 ppm; in experiment [3], 10 ppm. `C=CCCCCCCCCC(=O)N[C@@H](Cc1ccccc1)C(=O)O` [Sepiwhite 40 mg/ml H2O ins]: in experiment [1], the “performance against the bacteria” value is recorded as “performing well”.

Source of the values: patent US11833232B2, “Deodorant compositions with natural wax” (The Procter & Gamble Company, priority 2020, dated 2023).
